Here are results for eleven molecules from patent US7618984B2, “Sulfonamide compound” (Asahi Kasei Pharma Corporation, priority 2005, dated 2009).

Assay [1] concerns phosphorylation of myosin regulatory light chain. The experiment in a line: Inhibitory action on phosphorylation of myosin regulatory light chain (Test Example 1). It is filed as cell-based. To be noted: Neutrophil, 5 min; human peripheral blood neutrophils, 25° C. for 5 minutes; read-out: IC50, compound concentration providing a phosphorylation inhibition ratio of 50% (myosin regulatory light chain). Here is the method: A volume of 50 to 100 ml of peripheral blood collected from healthy volunteers was centrifuged by using Mono-Poly separator solution (Dainippon Pharmaceutical) to prepare a neutrophil containing fraction. The neutrophils were washed with PBS(−) and resuspended in Hanks' Balanced Salt Solution (HBSS+, Gibco) to prepare a cell suspension (8×10^6/ml). The cell suspension was diluted to 5×10^6/ml, introduced into Eppendorf tubes in a volume of 0.4 ml each, then 0.1 ml each of solutions of a test compound at various concentrations were added to the suspension and allowed to react at 25° C. for 5 minutes. After the reaction, 0.1 ml of trichloroacetic acid solution was added to each reaction mixture, the reaction mixture was gently shaken and centrifuged at 12,000 rpm (4° C., 5 minutes), and the supernatant was removed. Subsequently, 3 μl of 1 M Tris solution was added to the residue, the mixture was further mixed with 50 μl of extraction buffer (8 M urea, 0.02% 2-mercaptoethanol, 0.002% bromophenol blue) and left stand at room temperature for 1 hour. Then, the reaction mixture was loaded on a spin column (0.45 μm, Millipore) to remove the insoluble solids and a sample buffer for SDS polyacrylamide gel electrophoresis (25 mM, Tris-HCl pH 6.8, 2.5% 2-mercaptoethanol, 2% sodium dodecylsulfate, 5% sucrose, 0.002% bromophenol blue as final concentrations) was added, and 10 μl of each sample was subjected to electrophoresis.
The gel after the electrophoresis was blotted on a nitrocellulose membrane (BioRad), blocked with 5% skim milk, and reacted successively with antibodies pLC1 (Sakurada K. et al, Am. J. Physiol., 274, C1563-C1572 (1998)), which specifically recognize the phosphorylated myosin regulatory light chain, and donkey anti-mouse IgG (Chemicon) conjugated with horseradish peroxidase. The band of the phosphorylated myosin regulatory light chain was detected on a film by using ECL Plus Kit (Amersham Pharmacia Biotech). This band was subjected to quantification using a densitometer. By using this value, the inhibitory ratio (%) for phosphorylation of the myosin regulatory light chain was calculated by using the following equation. Phosphorylation inhibition ratio(%)=1−(Band intensity of phosphorylated myosin regulatory light chain with addition of the test compound/Band intensity of phosphorylated myosin regulatory light chain without addition of the test compound)×100
Further, the phosphorylation inhibition ratio was calculated with changing the concentrations of the test compound, and a compound concentration providing an inhibition ratio of 50% was obtained as IC50.

A further assay deals with neutrophils. The assay can be described thus: Neutrophil migration inhibitory action, Boyden Chamber, FMLP (Test Example 3). The conditions noted are these: 0.5 h, human neutrophils, FMLP 1 μM, 37° C., 30 minutes, read-out: IC50, compound concentration providing a migration inhibition ratio of 50%. It is filed as cell-based. The procedure:
Neutrophils were isolated from 50 to 100 ml of peripheral blood collected from healthy human donors by the method described in Test Example 1 to obtain a cell suspension (8×10^6/ml). Subsequently, solutions of a test compound at various concentrations were introduced into wells of a 96-well plate in a volume of 125 μl per well, the cell suspension of an equivalent volume was added to it and the plate was preincubated at room temperature for 5 minutes. During the preincubation, FMLP (1 μM, Sigma) solution was added to the lower chamber to set Boyden Chamber, the preincubated cell suspension was added to the upper chamber in a volume of 200 μl per well, and the cells were allowed to migrate at 37° C. under 5% carbon dioxide for 30 minutes. The filter after the migration was collected, and the non-migrated cells adhered to the surface that faced the upper chamber were carefully wiped off. Then, the migrated cells on the back surface were stained with DifQuick dye solution (International Reagents), washed with water and dried, and then absorbance was measured at 595 nm. The inhibition ratio against migration (%) of a test compound was calculated by using the following equation: Migration inhibition ratio(%)=(1−Absorbance of the group with addition of test compound/Absorbance of the group without addition of test compound)×100
Further, the migration inhibitory ratio was calculated with changing the test compound concentration, and a compound concentration providing an inhibition ratio of 50% was obtained as IC50.

The test system of assay [2] is rabbit normal intraocular pressure. The assay can be described thus: Intraocular pressure reducing action (Test Example 2). It is filed as in vivo, Japanese white rabbit. The conditions noted are these: Oryctolagus cuniculus, topical; 3 mM aqueous solution, 50 μl to the left eye; measured after 2, 4 and 6 hours; read-out: intraocular pressure reducing degree (max ΔIOP / intraocular pressure value immediately before administration × 100). The procedure: A Japanese white rabbit having a body weight of about 2 kg was placed in a positioner and naturalized for one week before the experiment. An opthalmologic local anesthesant (Benoxil) was administered to both eyes, and then intraocular pressure was measured by using a tonometer (Classic 30, Solan). A 3 mM aqueous solution of a test compound was administered in a volume of 50 μl to the left eye, and the right eye was not treated (control eye). The intraocular pressure values were measured for the left and right eyes immediately before, and 2, 4 and 6 hours after the administration of the aqueous solution of the test compound, and the difference of the measured values for the left and right eyes was considered an intraocular pressure reduction value of the test medicament at each measurement time. The largest difference of the values for the left and right eyes among the measured values at the measurement times (after 2, 4 and 6 hours) was considered the maximum intraocular pressure reduction value (max ΔIOP) of each test medicament. The intraocular pressure reducing degree representing the intraocular pressure reducing action of each test medicament was calculated according to the following formula. Since rabbits show significant daily variation of intraocular pressure, daily variation is added when change of intraocular pressure is measured over time, and the intraocular pressure reducing action may be overestimated. Therefore, we used this calculation method of intraocular pressure reduction value in order to minimize the influence of the variation. Intraocular pressure reducing degree (%)=(max ΔIOP/Intraocular pressure value immediately before administration)×100

Assay [3] concerns rabbit intraocular pressure. The experiment in a line: Rabbit intraocular pressure reduction enhancing action, combination use (Test Example 6-1). The conditions noted are these: 50 μL, difference of left and right eyes, 2, 4 and 6 hours. Type of assay: in vivo, Japanese white rabbit. The procedure: However, the effect is not limited to the 19-1 compound, and the ophthalmic solution concentration of the 19-1 compound is not limited to those used in this test example. Moreover, as for the test compound used for combination use, similar effect can be obtained also with the compounds of the present invention represented with the example numbers mentioned in Test Example 2.
As a test compound, the 19-1 compound was dissolved in physiological saline, and the solution was neutralized by addition of sodium hydroxide (pH 7.0 to 8.0) to prepare a 0.01 weight % aqueous solution (19-1 compound aqueous solution). As the drugs for combination use, isopropyl unoprostone (trade name: Rescula, Santen Pharmaceutical) was used as a prostaglandin-related drug, and brinzolamide hydrochloride (trade name: Azopt, Alcon Japan) was used as […], as the marketed formulations as they were.
A Japanese white rabbit having a body weight of about 2 kg was placed in a positioner and naturalized for one week before the experiment. An opthalmologic local anesthesant (Benoxil) was administered to both eyes, and then intraocular pressure before instillation was measured by using a tonometer (Classic 30, Solan). A test aqueous solution or the drug for combination use was administered to the left eye, and the right eye was not treated (control eye). The test groups consisted of (1) control group, (2) group instilled only with the 19-1 compound aqueous solution (single drug group 1), (3) group instilled only with the drug for combination use (single drug group 2), and (4) group instilled with the drug for combination use and the 19-1 compound aqueous solution (combination use group), and six rabbits were used for each group. As for the rabbits of these groups, 50 μL of physiological saline was first instilled to the control group, single drug group 1, and single drug group 2, and the drug for combination use was first instilled in the same volume to the combination use group. […] The intraocular pressure thereafter was measured for each group 2, 4 and 6 hours after the second administration of the test compound, and the difference of the measured values for the left and right eyes at each measurement time was considered an intraocular pressure reduction value of each group. The largest difference of the intraocular pressure values for the left and right eyes among those of the measured values of the measurement times was considered the maximum intraocular pressure reduction value (max ΔIOP) of each drug group.

Each structure is given as a SMILES string. Counter-ions that a name gives are not always drawn.

In the case of `N[C@@H]1CCN(S(=O)(=O)c2cccc3cncc(Cl)c23)C1` [Example 19-2, (R)-3-Amino-1-(4-chloro-5-isoquinolinesulfonyl)pyrrolidine], the IC50 in assay [1] was under 10 µM; with neutrophils, 10 to 40 µM. Besides, the inhibition in vivo at 3000 µM in assay [2] is at least 20%.
Take `Cc1cncc2cccc(S(=O)(=O)N3CCC[C@H](N)C3)c12` [Example 22-1, (S)-3-Amino-1-(4-methyl-5-isoquinolinesulfonyl)piperidine]: the IC50 was under 10 µM in assay [1] and 10 to 40 µM in the assay with neutrophils. Further, in assay [2], the inhibition in vivo at 3000 µM is 10 to 20%.
Consider `Cc1cncc2cccc(S(=O)(=O)N3CCC[C@@H](N)C3)c12` [Example 22-2, (R)-3-Amino-1-(4-methyl-5-isoquinolinesulfonyl)piperidine], for which the values for the IC50 (in assay [1]; with neutrophils) were under 10 µM and 10 to 40 µM, respectively. Further, the inhibition in vivo at 3000 µM in assay [2] was 10 to 20%.
The corresponding values for `CCc1cncc2cccc(S(=O)(=O)N3CC[C@H](N)C3)c12` [Example 23-1, (S)-3-Amino-1-(4-ethyl-5-isoquinolinesulfonyl)pyrrolidine] are under 10 µM, 10 to 40 µM and 10 to 20%.
The corresponding values for `Cc1cnc(O)c2cccc(S(=O)(=O)N3CC[C@H](N)C3)c12` [Example 25-1, (S)-3-Amino-1-(1-hydroxy-4-methyl-5-isoquinolinesulfonyl)pyrrolidine] are under 10 µM, under 10 µM and 10 to 20%.
In the same order, the values of `Cc1cncc2cccc(S(=O)(=O)N3CC(N)C3)c12` [Example 26, 3-Amino-1-(4-methyl-5-isoquinolinesulfonyl)azetidine] are under 10 µM, 10 to 40 µM and 5 to 10%.
For `CN[C@@H]1CCN(S(=O)(=O)c2cccc3cncc(C)c23)C1` [Example 27, (R)-3-(Methylamino)-1-(4-methyl-5-isoquinolinesulfonyl)pyrrolidine], the IC50 is under 10 µM in assay [1] and 10 to 40 µM in the assay with neutrophils. Further, the inhibition in vivo at 3000 µM in assay [2] lay within 5 to 10%.
The corresponding values for `CN[C@@H]1CCN(S(=O)(=O)c2cccc3cncc(Cl)c23)C1` [Example 32-2, (R)-1-(4-Chloro-5-isoquinolinesulfonyl)-3-(methylamino)pyrrolidine] are under 10 µM, 10 to 40 µM and 10 to 20%.
Consider `CN[C@H]1CCN(S(=O)(=O)c2cccc3c(O)ncc(Cl)c23)C1` [Example 36-1, (S)-1-(1-Hydroxy-4-chloro-5-isoquinolinesulfonyl)-3-(methylamino)pyrrolidine], for which the IC50 (in assay [1]; in the assay with neutrophils) was under 10 µM each time. The inhibition in vivo at 3000 µM in assay [2] was in the range of 10 to 20%.
In the case of `CCN[C@H]1CN(CCCOC)S(=O)(=O)c2sc(S(N)(=O)=O)cc21` [brinzolamide hydrochloride, reference compound], the “Max ΔIOP (maximum intraocular pressure reduction value), Table 2” value in assay [3] (0.01 weight % 19-1 compound aqueous solution and/or brinzolamide hydrochloride (Azopt)) came out at 2.3 mmHg.
On to `CCCCCCCC(=O)CC[C@@H]1[C@@H](C/C=C\CCCC(=O)OC(C)C)[C@@H](O)C[C@H]1O` [isopropyl unoprostone, reference compound], for which the “Max ΔIOP (maximum intraocular pressure reduction value), Table 3” value in assay [3] (0.01 weight % 19-1 compound aqueous solution and/or isopropyl unoprostone (Rescula)) amounted to 4.4 mmHg.
